Experimental data taken from patent US20240239786A1, “COMPOSITIONS AND METHODS FOR THE TREATMENT AND PREVENTION OF CANCER” (Yale University, priority 2021, published 2024).

Key:
Rad51 foci = assay: Nuclear Rad51 foci by confocal microscopy in SKOV3 cells; format: cell-based; settings: for Rad51 foci, single agent: 30 μM DB4 or 25 μM olaparib
Description: Cells were transfected with the ISceI-expressing plasmid and then treated various concentrations of DB4 for 48 hr. Cells were harvested, stained with 7-AAD, and analyzed by flow cytometry for GFP-positive cells indicative of HR repair activity. […] Cells were transfected with the ISceI-expressing plasmid and treated with various concentrations of DB4. Cells were harvested, stained with 7-AAD, and stained, and analyzed by flow cytometry for GFP-positive cells indicative of NHEJ activity. Data are means±SD (N=3). *, p<0.05; **, p<0.01, compared with the 0 μM control of ISceI-transected cells. FIG. 7C depicts representative results of confocal imaging of olaparib-induced nuclear Rad51 foci in SKOV3 cells treated DB4. Cells were treated with 30 μM DB4 for 1 hr and then treated with 25 μM olaparib or 6 hr. Cells were fixed, permeabilized, and stained with the anti-Rad51 antibody and the Alexa Fluor 488-conjugated secondary antibody. Nuclei were counterstained with DAPI. Immunofluorescence of Rad51 foci and nuclei were visualized by confocal microscopy. […] Cells were also scored for nuclei containing equal or more than 10 distinct Rad51 foci to determine the percentage of cells positive for Rad51 foci. Data are means±SD (N=10). p<0.001, compared between indicated treatment groups. […] Cells were pre-treated with 30 μM DB4 and then treated with 25 μM olaparib for 24 hr. Protein was assessed by western blot analysis for the levels of γH2AX, p-H1, cyclin A2, p-CDK1/2, and HSC70. Cropped gel images of protein bands are presented. Full-length gel images are shown in FIG. 15. p-H1, cyclin A2, p-CDK1/2, and HSC70 bands were from re-probing the same blot. The γH2AX band was from a duplicated blot. […] The band density of γH2AX indicative of DSBs was quantified by densitometry. […]
To interrogate whether DB4 inhibited PARP inhibitor-induced DSB repair, nuclear Rad51 foci were determined in SKOV3 cells. […]
SKOV3 cells were grown for 24 hr prior to drug treatment. […] Nuclei containing equal or more than 10 Rad51 foci were counted to determine % Rad51-positive cells.

PEO4 cells = assay: Flow cytometric EdU incorporation (DNA synthesis) assay, PEO4; format: cell-based; settings: for time-dependent inhibition of DNA synthesis (EdU-positive cells): 30 μM DB4 or 1 μM triapine, 3, 6, 24 hr
Method: Cells were plated for 24 hr and then treated with 50 μM compounds for 72 hr. For a positive control, cells were treated with 1 μM triapine for 72 hr. The percentage of cell survival was determined by the MTS cytotoxicity assay. […] Cells were treated with 50 μM compounds or 1 μM triapine for 24 hr. During the last hour, cells were pulse-labeled with EdU, stained with the Click-iT EdU Alexa Fluor 488 Assay Kit, counterstained with 7-AAD, and subsequently analyzed by flow cytometry. EdU-positive cells were gated to determine the percentage of the S phase cell population. The bivariate plots of Alexa Fluor 488 (EdU-positive) and PE-Cy5 (7-AAD-positive) are shown. […] Cells were treated with 50 μM compounds or 1 μM triapine for 24 hr. During the last hour, cells were pulse-labeled with EdU, stained with the Click-iT EdU Alexa Fluor 488 Assay Kit, counterstained with 7-AAD, and subsequently analyzed by flow cytometry. EdU-positive cells were gated to determine the percentage of the S phase cell population. The percentages of DNA synthesis in cells treated with each of 10 compounds and triapine relative to the DMSO-treated control is calculated and shown. FIG. 2D depicts representative results of dNTP measurement on triapine and DB4 in PEO4 cells. Cells were treated with 1 μM triapine or 50 μM DB4 for 24 hr. Cells were extracted with 65% methanol for determination of each of dNTPs expressed as pmole/10^6 cells. Data are means±SD (N=3). *, p<0.05; **, p<0.01; ***, p<0.001, compared with the DMSO-treated control in each dNTP. […] The percentage of cell survival was determined by the MTS cytotoxicity assay. […]
PEO1 cells were treated with 30 μM DB4 or 1 μM triapine for indicated times, pulsed with EdU for 1 hr and subsequently assayed for DNA synthesis inhibition as described in FIG. 2B. […] Protein was analyzed by western blotting for p-Chk1, p-ATR, p-RPA32, γH2AX, and HSC70. […] DSB end resection is assessed by the level of p-RPA32. […]

SMILES	Rad51 foci, single agent (Rad51 foci)	time-dependent inhibition of DNA synthesis (EdU-positive cells) (PEO4 cells)	olaparib-induced Rad51 foci (Rad51 foci; 30 μM DB4 1 hr then 25 μM olaparib)	inhibition at 50 µM (PEO4 cells; 50 μM, 24 hr)
O=C(c1cc(Cc2n[nH]c(=O)c3ccccc23)ccc1F)N1CCN(C(=O)C2CC2)CC1 [olaparib, reference compound]	induced a pronounced increase in Rad51 foci	–	–	–
NC(=S)NN=Cc1ncccc1N [triapine, 3-aminopyridine-2-carboxaldehyde-thiosemicarbazone, reference compound]	–	prompt reduction in EdU-positive cells	–	–
C=CCn1c(SCc2cccc(Cl)c2)nnc1C1CCN(Cc2nc3ccccc3s2)CC1 [DB4, 2-[(4-{4-allyl-5-[(3-chlorobenzyl)thio]-4H-1,2,4-triazol-3-yl}-1-piperidinyl)methyl]-1,3-benzothiazole]	had no effects on Rad51 foci	gradual decline in the EdU-positive cell population	significantly attenuated	> 99%
